Assay results: EPA's ToxValDB 9.5 (doi:10.2903/j.efsa.2016.4504)

Legend:
Colinus virginianus = conditions: oral; for LEC: diet
Folsomia candida = conditions: chronic/long-term
Canidae = conditions: chronic; oral; Dog Other; gross pathology
Apis mellifera = conditions: acute, mortality
Neomysis kadiakensis = conditions: chronic/long-term; duration: 32 days; reproduction
Aphidius rhopalosiphi = assay: LR50; higher = less toxic; conditions: not reported; mortality
[1] = short-term, duration: 28 days, oral, diet, no effects

Row | Structure (SMILES) | LEL (Colinus virginianus; acute) [mg/kg-day] | LEC (Colinus virginianus; chronic) [mg/kg-day] | LEC (Colinus virginianus; short-term) [mg/kg-day] | NOEC (Folsomia candida) [mg/kg] | NOAEL (Canidae) [mg/kg-day] | LC50 (Tagia sp.; acute) [mg/kg] | NOEC (Tagia sp.; chronic/long-term) [mg/kg] | LC50 (Cyprinodon variegatus; acute, duration: 96 hours, mortality) [µg/mL] | NOEC (Cyprinodon variegatus; chronic/long-term, duration: 35 days, growth) [mg/L] | LD50 (Rattus norvegicus; acute, oral, mortality) [mg/kg] | NOAEL (Rattus norvegicus; reproduction developmental, other) [mg/kg-day] | LD50 (Apis mellifera; dermal) [µg/piece] | LD50 (Apis mellifera; oral, unspecified) [µg/piece] | NOEC (Neomysis kadiakensis) [mg/L] | LR50 (Aphidius rhopalosiphi) [g/ha] | NOAEL (Rattus norvegicus; [1]) [mg/kg-day]
1 | Cc1cc(C(F)(F)F)nn1CC(=O)N1CCC(c2nc(C3=NOC(c4c(F)cccc4F)C3)cs2)CC1 (configuration not stated) [Oxathiapiprolin] | > 4250 | 107 | > 1280 | 12.5 | 13.6 | > 500 | 15.4 | > 0.65 | 0.34 | > 5000 | 86.4 | > 100 | > 40.3 | 0.058 | 116 | –
2 | O=C(O)c1cc(C(F)(F)F)[nH]n1 [5-(Trifluoromethyl)-1H-pyrazole-3-carboxylic acid] | – | – | – | – | – | – | – | – | – | – | – | – | – | – | – | 1160
3 | O=C(O)c1cc(C(F)(F)F)nn1[C@@H]1O[C@H](CO)[C@@H](O)[C@H](O)[C@H]1O | – | – | – | – | – | – | – | – | – | – | – | – | – | – | – | 1160
